Activity calls are given as the source filed them.
How the values were obtained:
[1] = inhibitors of Vif binding to APOBEC3G peptide, primary screen, biochemical, TR-FRET, GST-Vif 1-94, biotin-A3G peptide, dose response retest (AID 1117319); type: functional;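 also: TR-FRET signal of purified GST-Vif binding a biotinylated A3G peptide; inhibitors lower the FRET signal by blocking Vif and A3G binding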
[2] = molecular target: Heat shock protein HSP 90-alpha (Homo sapiens, UniProt P07900); type: functional, organism-based
[3] = molecular target: T1, Corticotropin-releasing factor receptor 2/Corticotropin-releasing factor-binding protein (Homo sapiens, UniProt P24387+Q13324); assay: activators of CRF receptor 2 with binding protein – uHTS hits, confirmation (AID 602473); type: functional; settings: read-out: EC50_Mean
T1 sequence (Q13324 whole entry): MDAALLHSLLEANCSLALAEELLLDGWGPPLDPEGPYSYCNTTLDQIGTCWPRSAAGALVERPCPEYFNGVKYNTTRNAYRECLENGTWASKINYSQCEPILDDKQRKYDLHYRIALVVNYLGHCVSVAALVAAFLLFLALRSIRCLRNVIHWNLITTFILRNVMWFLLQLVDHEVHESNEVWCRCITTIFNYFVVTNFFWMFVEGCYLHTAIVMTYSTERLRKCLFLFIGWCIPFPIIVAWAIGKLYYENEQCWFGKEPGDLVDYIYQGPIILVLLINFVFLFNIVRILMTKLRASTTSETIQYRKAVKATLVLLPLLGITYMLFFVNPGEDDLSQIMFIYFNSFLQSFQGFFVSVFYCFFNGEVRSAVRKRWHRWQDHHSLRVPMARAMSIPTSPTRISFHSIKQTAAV
T1 sequence (P24387 whole entry): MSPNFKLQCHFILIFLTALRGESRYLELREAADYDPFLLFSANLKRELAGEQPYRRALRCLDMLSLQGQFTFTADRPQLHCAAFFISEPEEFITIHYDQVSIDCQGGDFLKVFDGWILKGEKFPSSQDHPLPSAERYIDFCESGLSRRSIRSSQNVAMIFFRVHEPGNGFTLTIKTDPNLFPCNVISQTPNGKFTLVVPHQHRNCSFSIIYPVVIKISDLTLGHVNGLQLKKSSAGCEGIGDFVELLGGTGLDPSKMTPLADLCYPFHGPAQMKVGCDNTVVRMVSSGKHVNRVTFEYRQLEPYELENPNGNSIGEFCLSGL

[4] = molecular target: FAD-linked sulfhydryl oxidase ALR (Homo sapiens, UniProt P55789); assay: inhibitors of human ALR sulfhydryl oxidase, dose response, biochemical, H2O2 detection, luminescence, cherry-pick (AID 493248)
Chain of FAD-linked sulfhydryl oxidase ALR (P55789 whole entry): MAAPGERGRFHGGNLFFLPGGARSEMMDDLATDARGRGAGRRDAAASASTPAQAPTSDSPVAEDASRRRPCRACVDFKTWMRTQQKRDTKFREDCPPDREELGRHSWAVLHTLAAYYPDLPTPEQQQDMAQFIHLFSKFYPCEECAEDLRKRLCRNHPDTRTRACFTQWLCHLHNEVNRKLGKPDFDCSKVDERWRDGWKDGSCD

[5] = molecular target: T1, Corticotropin-releasing factor receptor 2/Corticotropin-releasing factor-binding protein; assay: Dose Response confirmation of uHTS hits for small molecule antagonists of the CRF-binding protein and CRF-R2 receptor complex.; type: functional; settings: read-out: IC50_Mean
[6] = Luminescence Cell-Based Dose Confirmation HTS to Identify Activators of 5'UTR Stem-Loop Driven Alpha-Synuclein mRNA Translation in H4 Neuroglioblastoma Cells. [Related pubchem assays: 1829 (Project Summary), 1814 (Primary HTS)]; type: functional
[7] = tested on: H4; assay: Luminescence Cell-Based Dose Response HTS to Identify Activators of 5'UTR Stem-Loop Driven Prion Protein mRNA Translation in H4 Neuroglioblastoma Cells. [Related pubchem assays: 1829 (Project Summary), 1814 (Primary HTS)]; type: functional; settings: Homo sapiens
[8] = Luminescence Cell-Based Dose Response HTS to Identify Activators of Luciferase Translation or Activity in H4 […] Cells. [Related pubchem assays: 1829 (Project Summary), 1814 (Primary HTS)]; type: functional
[9] = molecular target: T2, Short transient receptor potential channel 4 (Mus musculus, UniProt Q9QUQ5); assay: mouse TRPC4 channel activators, dose response, cell-based, HEK293 TRPC4/mu-opioid, Fluo-4 calcium (AID 434937); type: functional
T2 sequence (Q9QUQ5 whole entry): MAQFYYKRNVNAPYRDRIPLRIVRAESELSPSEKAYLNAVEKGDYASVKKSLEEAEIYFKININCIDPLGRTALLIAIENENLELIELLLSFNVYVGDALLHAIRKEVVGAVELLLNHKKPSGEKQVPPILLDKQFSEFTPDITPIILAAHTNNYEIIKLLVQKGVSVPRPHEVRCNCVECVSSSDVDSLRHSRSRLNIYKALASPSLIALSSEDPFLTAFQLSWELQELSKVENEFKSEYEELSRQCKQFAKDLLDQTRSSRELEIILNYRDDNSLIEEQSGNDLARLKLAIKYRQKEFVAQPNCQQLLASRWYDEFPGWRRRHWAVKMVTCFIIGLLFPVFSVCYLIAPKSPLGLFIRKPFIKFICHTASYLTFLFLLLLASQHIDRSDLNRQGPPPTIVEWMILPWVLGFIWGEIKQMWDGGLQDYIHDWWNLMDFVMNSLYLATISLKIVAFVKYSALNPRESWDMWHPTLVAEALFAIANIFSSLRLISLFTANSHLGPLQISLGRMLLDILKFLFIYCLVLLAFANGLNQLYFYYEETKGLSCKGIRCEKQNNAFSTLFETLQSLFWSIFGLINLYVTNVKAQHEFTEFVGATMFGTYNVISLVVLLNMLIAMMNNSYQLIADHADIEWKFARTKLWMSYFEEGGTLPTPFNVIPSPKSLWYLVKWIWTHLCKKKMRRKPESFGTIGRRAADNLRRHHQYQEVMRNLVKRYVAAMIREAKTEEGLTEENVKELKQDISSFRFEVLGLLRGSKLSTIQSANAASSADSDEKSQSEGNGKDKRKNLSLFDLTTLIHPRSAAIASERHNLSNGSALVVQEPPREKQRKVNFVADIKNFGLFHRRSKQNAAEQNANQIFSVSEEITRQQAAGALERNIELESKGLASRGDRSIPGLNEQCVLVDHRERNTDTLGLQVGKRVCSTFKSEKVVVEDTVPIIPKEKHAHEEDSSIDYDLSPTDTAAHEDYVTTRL

[10] = tested on: HEK293; assay: NOD1 signaling inhibitors, primary screen, cell-based, luminescence, uHTS (AID 1578); type: functional; settings: Homo sapiens
[11] = molecular target: T3, Zinc finger protein mex-5 (Caenorhabditis elegans, UniProt Q9XUB2); assay: MEX-5/TCR-2 RNA interaction inhibitors, dose response, biochemical, C. elegans, fluorescence polarization (AID 1960)
T3 sequence (Q9XUB2 whole entry): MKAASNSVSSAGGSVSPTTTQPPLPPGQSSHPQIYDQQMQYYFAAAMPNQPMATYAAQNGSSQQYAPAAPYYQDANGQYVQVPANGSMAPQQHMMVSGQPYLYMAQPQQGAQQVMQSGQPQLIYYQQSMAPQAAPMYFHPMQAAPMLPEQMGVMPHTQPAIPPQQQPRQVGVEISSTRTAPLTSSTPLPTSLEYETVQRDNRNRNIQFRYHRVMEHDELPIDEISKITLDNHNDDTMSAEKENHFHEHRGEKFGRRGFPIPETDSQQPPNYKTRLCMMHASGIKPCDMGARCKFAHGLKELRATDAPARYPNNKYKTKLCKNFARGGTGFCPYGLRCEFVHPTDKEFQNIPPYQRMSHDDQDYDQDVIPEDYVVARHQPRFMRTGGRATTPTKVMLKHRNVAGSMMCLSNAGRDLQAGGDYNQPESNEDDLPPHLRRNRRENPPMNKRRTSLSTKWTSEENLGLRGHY

[12] = molecular target: T4, RNA-binding protein pos-1 (Caenorhabditis elegans, UniProt G5EF15); assay: inhibitors of POS-1/mex-3 RNA binding, dose response, biochemical, fluorescence polarization (AID 1964);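 also: purified POS-1 fused to maltose binding protein made in E. coli; potency of compounds blocking POS-1 binding to fluorescent RNA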
T4 sequence (G5EF15 whole entry): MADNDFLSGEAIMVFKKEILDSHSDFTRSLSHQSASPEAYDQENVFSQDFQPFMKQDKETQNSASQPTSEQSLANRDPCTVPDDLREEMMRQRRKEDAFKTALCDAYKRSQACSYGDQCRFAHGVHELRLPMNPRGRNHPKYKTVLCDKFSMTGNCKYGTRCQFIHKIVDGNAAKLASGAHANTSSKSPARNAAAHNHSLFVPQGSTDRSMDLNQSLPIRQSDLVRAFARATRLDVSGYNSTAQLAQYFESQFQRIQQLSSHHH

[13] = tested on: HEK293; assay: cells; type: functional, cell-based; settings: Homo sapiens
[14] = tested on: HEK293; assay: cells; type: functional, cell-based; settings: Homo sapiens; remark: listed apart in the source
[15] = tested on: HEK293; assay: NOD2 signaling inhibitors in MDP-stimulated cells, cell-based, uHTS, luminescence (AID 2001); type: functional; settings: Homo sapiens
[16] = MC4R antagonists, dose response, counter-screen for LGR2 antagonist project, cell-based, plate reader, cherry pick (AID 743444); type: functional;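 also: transfected HEK 293 cells stimulated with alpha-MSH peptide; potency of inhibitors of the alpha-MSH evoked signal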
[17] = A549 cell cytotoxicity, dose response, cytotoxicity control, plate reader, cherry-pick, antagonist series (AID 743412); type: functional, cell-based
[18] = LGR2 antagonists, dose response, cell-based, HEK293, CRE-luciferase reporter, cherry pick, set 2 (AID 743343); type: functional;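 also: transfected cells were stimulated with diluted bursicon conditioned medium after compound addition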
[19] = HepG2 cell cytotoxicity, dose response, cytotoxicity control, plate reader, cherry-pick, antagonist series (AID 743416); type: functional, cell-based
[20] = CRF-BP/CRF-R2 complex antagonists, dose response, cell-based, uHTS hits, 384-well (AID 651639); type: functional, Homo sapiens; settings: read-out: IC50_Mean
[21] = Luminescence Cell-Based Dose Confirmation to Identify Activators of 5'UTR Stem-Loop Driven Alpha-Synuclein mRNA Translation in H4 Neuroglioblastoma Cells. [Related pubchem assays: 1829 (Project Summary), 1814 (Primary HTS)]; type: functional
[22] = Luminescence Cell-Based Dose Response to Identify Activators of 5'UTR Stem-Loop Driven Prion Protein mRNA Translation in H4-C Neuroglioblastoma Cells. [Related pubchem assays: 1829 (Project Summary), 1814 (Primary HTS)]; type: functional
[23] = Luminescence Cell-Based Dose Response to Identify Activators of Luciferase Translation or Activity in H4-C Neuroglioblastoma Cells. [Related pubchem assays: 1829 (Project Summary), 1814 (Primary HTS)]; type: functional
[24] = molecular target: Genome polyprotein (dengue virus type 2, UniProt P29990); assay: Dengue-2 NS5 methyltransferase inhibitors, primary screen, biochemical, confirmation dose response (AID 588689); type: functional
Chain of Genome polyprotein (P29990 2492-3391 limits assumed): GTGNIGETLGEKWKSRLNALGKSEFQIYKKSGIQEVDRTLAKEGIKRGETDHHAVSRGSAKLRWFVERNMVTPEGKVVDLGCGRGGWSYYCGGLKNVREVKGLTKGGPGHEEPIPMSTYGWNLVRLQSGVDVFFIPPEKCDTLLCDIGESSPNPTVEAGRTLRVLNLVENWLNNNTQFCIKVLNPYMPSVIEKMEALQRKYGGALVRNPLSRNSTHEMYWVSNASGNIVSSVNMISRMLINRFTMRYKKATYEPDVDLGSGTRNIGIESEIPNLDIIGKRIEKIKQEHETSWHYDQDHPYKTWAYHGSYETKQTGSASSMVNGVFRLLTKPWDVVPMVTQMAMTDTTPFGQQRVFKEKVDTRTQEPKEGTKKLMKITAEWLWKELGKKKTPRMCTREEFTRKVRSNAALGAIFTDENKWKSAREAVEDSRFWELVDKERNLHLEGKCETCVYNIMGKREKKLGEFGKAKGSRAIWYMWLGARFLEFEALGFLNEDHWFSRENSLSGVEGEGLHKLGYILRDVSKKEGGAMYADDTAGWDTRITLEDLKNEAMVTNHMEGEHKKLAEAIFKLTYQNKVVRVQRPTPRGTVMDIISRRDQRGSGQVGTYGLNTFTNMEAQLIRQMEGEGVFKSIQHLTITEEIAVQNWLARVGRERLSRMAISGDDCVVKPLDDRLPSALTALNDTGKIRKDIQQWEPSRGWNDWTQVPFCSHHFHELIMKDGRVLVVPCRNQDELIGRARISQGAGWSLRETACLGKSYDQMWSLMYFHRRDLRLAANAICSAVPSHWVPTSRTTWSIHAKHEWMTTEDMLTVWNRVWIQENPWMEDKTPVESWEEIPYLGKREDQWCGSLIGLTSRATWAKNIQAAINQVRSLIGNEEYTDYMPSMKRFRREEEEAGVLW

[25] = cells; type: functional, cell-based
[26] = cells; type: functional, cell-based; remark: listed apart in the source
[27] = molecular target: Nonstructural protein 1 (Influenza A virus, UniProt Q194T2); type: functional, Influenza A virus (A/California/07/2009(H1N1))
Chain of Nonstructural protein 1 (Q194T2 whole entry): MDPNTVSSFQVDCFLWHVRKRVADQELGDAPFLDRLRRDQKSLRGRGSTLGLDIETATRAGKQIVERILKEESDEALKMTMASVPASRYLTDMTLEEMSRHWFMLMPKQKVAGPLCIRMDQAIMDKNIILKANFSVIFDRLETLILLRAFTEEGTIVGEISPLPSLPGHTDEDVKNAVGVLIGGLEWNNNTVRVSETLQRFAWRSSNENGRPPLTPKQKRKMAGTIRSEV

## CCCn1nc(Oc2nc(SC)nc(N(C)C)n2)ccc1=O
[1]
  IC50: > 100 µM (active)

## Oc1c(C(c2ccccc2)N2CCOCC2)ccc2ccccc12 (stereo not drawn)
[2]
  AC50: 7.26 µM (active)

## CCCC(=O)N1CCc2cc(-c3nc(N)sc3C)ccc21
[3]
  EC50: > 53 µM (inactive)
[4]
  AC50: 0.149 µM (active)
[5]
  IC50: > 47.1 µM (inactive)
[6]
  EC50: 43.5 µM (active)
[7]
  EC50: 44.6 µM (active)
[8]
  EC50: 31.9 µM (active)
[9]
  EC50: 0.376 µM (active)

## Cc1cccc2cc3c(N)c(C(=O)Nc4ccc(N5CCOCC5)cc4)sc3nc12
[10]
  EC50: 18.7 µM (active)
[11]
  EC50: > 300 µM (not active)
[12]
  EC50: > 300 µM (not active)
[13]
  IC50: 5.5 µM (active)
[14]
  IC50: > 20 µM (inactive)
[15]
  IC50: 7.54 µM (inactive)

## Cc1cc(C)n2c(Nc3ccc4c(c3)OCCO4)c(-c3cc4ccccc4o3)nc2n1
[16]
  AC50: 22.8 µM (active)
[17]
  AC50: 29.8 µM (active)
[18]
  AC50: 12.7 µM (active)
[19]
  AC50: > 52 µM (inactive)

## Cc1ccc(-n2nnnc2SCc2nnc(-c3ccccc3Br)o2)cc1
[20]
  IC50: 3.85 µM (active)
[3]
  EC50: > 53 µM (inactive)
[5]
  IC50: 11 µM (active)

## COC(=O)c1ccccc1NC(=O)c1cccc(COc2ccccc2Cl)c1
[21]
  EC50: 0.299 µM (active)
[22]
  EC50: 0.809 µM (active)
[23]
  EC50: 0.295 µM (active)
[8]
  EC50: < 0.1 µM (active)

## COc1ccc(/C=c2\sc3nc(=O)c(C)nn3c2=O)c(OC)c1
[24]
  IC50: 22.1 µM (active)
[11]
  EC50: 88 µM (active)
[12]
  EC50: > 300 µM (not active)

## COC(=O)CSc1nc(-c2cccs2)ccc1C#N
[21]
  EC50: 0.219 µM (active)
[22]
  EC50: 0.307 µM (active)
[23]
  EC50: 0.179 µM (active)
[7]
  EC50: 0.261 µM (active)
[8]
  EC50: < 0.1 µM (active)

## S=C(NCCc1ccccc1)N1CCC2CC1c1c(Cl)cccc12 (stereo not drawn)
[20]
  IC50: > 20 µM (inactive)
[3]
  EC50: > 53 µM (inactive)
[5]
  IC50: 28.9 µM (active)

## CC1C/C(=N/N2C(=O)CSC2=S)CC(C)(C)C1 (stereo not drawn)
[1]
  IC50: > 100 µM (active)

## COc1ccc(NC(=O)CN2CCC(C(N)=O)CC2)cc1
[1]
  IC50: > 100 µM (active)

## Cc1nc2nc(-c3ccco3)nn2c(C)c1Cl
[25]
  EC50: > 350 µM (not active)
[1]
  IC50: > 100 µM (active)
[26]
  EC50: > 350 µM (not active)

## COc1cc(NC(=O)CSc2ncnc3sc4c(c23)CCC(C)C4)c(C(=O)O)cc1OC (stereo not drawn)
[24]
  IC50: 86 µM (active)

## Cc1cccc(CSc2nc3c(c(=O)n2C)SCC3)c1
[20]
  IC50: > 20 µM (inactive)
[3]
  EC50: > 53 µM (inactive)
[5]
  IC50: < 0.368 µM (active)

## N=C(N)NN=C1CCCCCCCCCCC1
[9]
  EC50: 7.5 µM (active)

## C#CCOc1ccc(/C=C2/C(=O)N(c3ccc(S(N)(=O)=O)cc3)N=C2C)cc1OC
[24]
  IC50: > 100 µM (active)

## Cc1cs/c(=N\c2ccccc2)n1Cc1ccco1
[20]
  IC50: > 20 µM (inactive)
[3]
  EC50: > 53 µM (inactive)
[5]
  IC50: 38.4 µM (active)

## CC(=NNC(=S)N(Cc1ccccn1)Cc1ccccn1)c1cnccn1
[2]
  AC50: 3.3 µM (active)
[27]
  IC50: 1.18 µM (active)

From ChEMBL document CHEMBL1201862, “PubChem BioAssay data set” (2004)
